Source: patent US20030109051A1, “Spin trap for use in biological systems” (RANDOX LABORATORIES LTD, priority 2001, published 2003)
Entries after “also recorded” stand apart in the source; their conditions may differ.

Experiments:
[1] = Spin trapping of nitric oxide in whole blood using DMNB (ESR)
Protocol: This may be due to the possibility that any NO present or produced by live leucocytes in whole blood may react with thiol groups to form S-nitrosothiols and consequently be not trapped by DMNB. […] Lipopolysaccharide (LPS), which activates cell function, was also used in order to stimulate the cells to increase production of NO. As NEM may be toxic to cells, it was added i) at the same time as LPS and ii) 3.5 hours after the addition of LPS.
Peripheral blood was taken from a healthy volunteer into a vacutainer containing EDTA. After mixing, 1 ml of the blood was dispensed into each reaction vacutainer by a syringe, as quickly as possible (under 5 min).
DMNB (2) 0.5406 g was dissolved in 16 ml of deoxygenated toluene (by bubbling through nitrogen gas) to make a 0.25 M solution. 700 μl of the solution was added to each reaction mixture to make a final concentration of 0.1 M. A NO solution was made by bubbling nitric oxide gas through deoxygenated water for 45 min. The resulting NO solution (2 mM) was diluted with deoxygenated water to give 10, 35 and 50 nM solutions. An NEM solution (0. 3 M) was prepared by dissolving 0.0751 g of NEM in deoxygenated water. NEM solution (0.3 M), in amounts of 20, 40 and 80 μl, was added to the reaction mixtures to give a concentration, in 1 ml of blood, of 6, 12 and 24 mM. LPS (1 mg) was dissolved in 1 ml of PBS, 0.01 M, pH 7.4. The working stock solution is 100 μg/ml, diluted with the same buffer. The working stock solution of 10 μl was added to the reaction mixture to give a 1 μg/ml of blood. All transfer of reagents was done by gastight syringe through rubber stopper. The difference in volume due to the addition of NEM and LPS was compensated for by addition of deoxygenated water.
NO solution, blood without NEM nor LPS and PBS (0.01 M, pH 7.4) as controls were added to DMNB in toluene directly. NEM without LPS was added to blood immediately prior to addition of DMNB in toluene. When LPS was added to blood alone, the mixture of blood and LPS was incubated at room temperature for 3.5 hour before addition to DMNB in toluene. When both NEM and LPS were added to blood, NEM was either added to the blood together with LPS or added 3.5 hour later (Gust before addition of DMNB). When the DMNB in toluene was added, the reaction mixtures were incubated at room temperature on a roller for 2 hour to ensure effective extraction.
The reaction mixture was then analysed by ESR spectrometry (RE1X, Jeol). Individual results are shown in FIG. 6, and have been reassessed, for comparison purposes, in FIG. 7.

[2] = Reaction of nitric oxide with spin traps, ESR time course (chemical system); conditions: for trapping of nitric oxide (spin trap for nitric oxide): chemical system, spin trap in toluene, NO-saturated water
Protocol: ESR spectra were obtained using a prototype spectrometer (Jeol (U.K.) Ltd., Welwyn Garden City, England) equipped with a TED11 cylindrical cavity. Samples were analysed at room temperature in a WG-LC-11 quartz flat cell (Wilmad-Glass, Buena, N.J.). In general, the instrument parameters were: microwave frequency 9.2 GHz, microwave power 4 mW, centre field (CF) 336.7 mT, sweep width (SW)±5 mT, number of data points 4095, modulation frequency 100 kHz. For the spin traps reacted with nitric oxide: sweep time (ST) 150 s, time constraint (TC) 0.3 s, modulation width (MW) 0.2 mT. A JEOL ES-DM1 digital manganese oxide marker (0.03 mm of the glass tube inserted per unit on the dial setting) with a dial setting of 500 was used to ensure reproducibility between samples and to identify the position of the signals in the microwave field.
Samples of DBBNB, DMNB and TMNB were weighed into vacutainers, which were then evacuated Toluene and Tris-HCl buffer, 0.01 M, pH 7.4, were deoxygenated by bubbling with nitrogen gas for 15 min. Deoxygenated toluene was added to DBBNB, DMNB and TMNB, using a gas-tight syringe, to give a final concentration of 0.15 M in the reaction mixture.
The apparatus shown in FIG. 5 was flushed with nitrogen for 15 min. The vacutainer containing deionised water (4 ml) was then connected to the system and flushed with nitrogen for a further 15 min, to remove any oxygen present in the system, and therefore to prevent the formation of nitrogen dioxide. The NO gas was bubbled through the deionised water via the system for 45 min. The small amount of nitrogen dioxide present in the pressurised NO container was removed by bubbling through two bottles of 5M NaOH. The gas was then bubbled through a scrubbing bottle containing deionised water to remove any alkaline aerosol contamination. Any excess of NO after the deionised water step was bubbled through a scrubbing bottle containing 1M potassium permanganate/1M NaOH to prevent excess NO escaping from the fumehood. The concentration of NO in the resulting NO-saturated water was taken to be 2.0 mM. […]

SMILES	DMNB-NO adduct ESR signal intensity ([1]; LPS alone (1 μg/ml blood, 3.5 hour) before DMNB)	DMNB-NO adduct ESR signal intensity ([1]; NEM (6, 12, 24 mM) added to blood before DMNB, increase proportional to NEM concentration)	DMNB-NO adduct ESR signal ([1]; both LPS and NEM added to blood)	DMNB-NO adduct ESR signal ([1]; peripheral blood incubated with DMNB in toluene, no NEM, no LPS)	trapping of nitric oxide (spin trap for nitric oxide) [2]	reaction time of DBNBS with NO ([2]; comparison value, conditions and source not given)
Cc1cccc(C)c1N=O [DMNB, 2,6-Dimethylnitrosobenzene]	did not Increase the signal intensity	increase in signal intensity	significant increase	did not produce a detectable DMNB-NO adduct signal; also recorded: very little signal was detected	shown to trap nitric oxide	–
Cc1cc(C)c(N=O)c(C)c1 [TMNB, 2,4,6-Trimethylnitrosobenzene]	–	–	–	–	shown to trap nitric oxide	–
O=Nc1c(Br)cc(S(=O)(=O)[O-])cc1Br.[Na+] [DBNBS, 3,5-dibromo-4-nitrosobenzene sulphonate, sodium salt, reference compound]	–	–	–	–	–	approximately 50 hr
